Experimental data taken from publication PMC6001580, “Synthesis and molecular modelling studies of pyrimidinones and pyrrolo[3,4-d]-pyrimidinodiones as new antiplasmodial compounds” (Memórias do Instituto Oswaldo Cruz, 2018).
“And” between values parts separate entries of the source, which are not always exact repeats. Identical values can stand only once. Like-named read-outs stand apart in the source and are kept apart here.

Legend:
[1] = tested on: chloroquine-resistant Plasmodium falciparum W2 strain; test: Antiplasmodial in vitro assay (HRPII sandwich ELISA, 72 h); format: cell-based; settings: for IC50: Plasmodium falciparum, W2, 72 h; for SI (selectivity index): SI = MDL50 / IC50 (BGM cells vs P. falciparum W2)
Source text: Antiplasmodial in vitro assay - The cultivation of P. falciparum W2 strain (originating from Indochina and cultivated in the Malaria Research Laboratory, Oswaldo Cruz Foundation-Fiocruz), which is chloroquine-resistant, was made according to the protocol of [Trager and Jensen (1976)], using human erythrocytes (A^+) in an RPMI 1640 medium supplemented with human serum. Parasites were synchronised to obtain the young (ring) parasite forms ([Lambros and Vanderberg 1979]). Parasitaemia was adjusted to 0.05% and haematocrit to 1.5%. Subsequently, the cultures were placed in microplates with the drugs, previously diluted in dimethyl sulphoxide and medium (DMSO 0.02% v/v), to be tested in serial dilutions (50 - 0.78 µM), as well as positive controls (chloroquine in serial dilutions; 10 - 0.07 µM) and negative (no drug) controls. All the microplates were incubated for 72 h. The microplates were then subjected to three cycles of freezing and thawing; the parasite growth was measured through the quantification of histidine-rich protein II (HRPII) using specific monoclonal antibodies (MPFM ICLLAB-55A®, USA and MPFG55P ICLLAB®, USA) in sandwich ELISA ([Noedl et al. 2002]). Absorbance was read at 450 nm in an Espectramax 190 spectrophotometer (Molecular Devices, USA), and the determination of the IC50 was made using dose-response curves.

BGM cells = test: Cytotoxicity evaluation on mammalian cells (MTT); format: cell-based; settings: 24 h, mean of three experiments
Protocol: Cytotoxicity evaluation on mammalian cells - BGM cells (originally acquired from ATCC (American Type Culture Collection), Manassas, VA, USA by the Federal University of Minas Gerais, Brazil, and donated by Dr Antoniana Krettli - Federal University of Minas Gerais) were cultured in 75 cm^2 sterile ﬂasks containing RPMI 1640 medium supplemented with 10% foetal bovine serum (FBS) at a concentration of 5 x 10^3 cells per millilitre in a 5% CO2 atmosphere at 37 °C. Cells were added with the test compounds in serial dilution. When the cell monolayer was confluent, it was trypsinised, washed with a culture medium distributed in a flat-bottomed 96-well plate (1 × 10^5 cells/mL) and incubated for 24 h at 37 °C to ensure cell adherence. Then, the drugs were added in serial dilution (1000-15 µM) and incubated for 24 h at 37 °C. Subsequently, the MTT salt, in a concentration of 3 mg/mL, was added after 3 h; then, the supernatant was removed, and the dye present on the bottom of the plate wells was dissolved in DMSO in a volume of 100 µL/well DMSO. The microplates were then read in an Espectramax 190 (Molecular Devices, USA) spectrophotometer, using the 570 nm filter. The determination of MDL50 was performed using a dose response curves nonlinear regression function ([Denizot and Lang 1986]).

[2] = tested on: P. berghei ANKA expressing green fluorescent protein (PbA-GFP); test: In vivo activity evaluation against P. berghei (four-day test in mice); design: species or system Plasmodium berghei; settings: Swiss mice, 30 mg/Kg orally for four consecutive days, vs untreated controls; for Reduction (%) of parasitaemia, Day eight: day eight after infection; for Reduction (%) of parasitaemia, Day five: day five after infection
Source text: In vivo activity evaluation against P. berghei - Swiss mice (Institute of Science and Technology in Biomodels - Fiocruz) were inoculated with 10^5 erythrocytes infected with P. berghei ANKA expressing green fluorescent protein (PbA-GFP, a donation from the malaria research and reference reagent resource centre -MR4, Manassas, VA; deposited by CJ Janse and AP Waters; MR4 number: MRA-865) intraperitoneally (day 1 of the experiment). Three hours after inoculation, the animals were randomly divided into five groups of mice. […] All of the test compounds and chloroquine were administered at a dose of 30 mg/kg, orally by gavage for four consecutive days. On days 5 and 8 after infection, flow cytometry was used to detect and count the number of parasitised red blood cells (RBC) that expressed GFP in relation to 10,000 RBCs, thus assessing the evolution of parasitaemia. […] The antimalarial activity was determined by the percentage reduction in parasitaemia of treated animals compared to untreated controls ([Peters et al. 1975]).

Hemolysis assay = format: cell-based; settings: erythrocyte suspension (1% haematocrit), at 1000 μM, 37 °C, read-out: haemolysis
Protocol: Hemolysis assay - The haemolysis assay was performed according to the protocol described by [Wang et al. (2010)]. The compounds were dissolved in DMSO (0.5% v/v). Suspensions of erythrocytes (1% haematocrit) were incubated with the compounds at serial dilutions ranging from 15 to 1000 µM, at 37 °C for 30 min with a constant stirring. A 0.05% solution of saponin (Sigma-Aldrich) was used as a positive control of the test as it generated 100% haemolysis, and the suspension of erythrocytes in the medium was used as a negative control (blank). Following incubation, suspensions were centrifuged at 1000 g for 10 min, and the absorbance of the supernatants was measured at 540 nm using an Espectramax 190 spectrophotometer. The haemolysis rate of the samples was calculated as follows: % haemolysis = (sample absorbance - blank absorbance) x 100 / absorbance of the control with saponin.

[3] = P. falciparum W2 strain, 72 h, HRPII ELISA, mean of three experiments, read-out: IC50

SMILES: CCOC(=O)C1=C(CCl)NC(=O)NC1c1ccccc1 (centres unmarked) [1a]
- IC50 [1, 3]: 6.38 ± 0.8 µM
- SI (selectivity index) [1]: 3.9
- MDL50 (BGM cells): 24.6 ± 0.03 µM

SMILES: CCOC(=O)C1=C(CCl)NC(=O)NC1c1ccc(OC)cc1 (centres unmarked) [1b]
- SI (selectivity index) [1]: 19
- MDL50 (BGM cells): 57 µM and 57 ± 0.65 µM
- Reduction (%) of parasitaemia, Day eight [2]: 33.8%
- Reduction (%) of parasitaemia, Day five [2]: 0%

SMILES: CCOC(=O)C1=C(CCl)NC(=O)NC1c1cccc(Br)c1 (centres unmarked) [1c]
- IC50 [1, 3]: 6.17 ± 0.02 µM
- SI (selectivity index) [1]: 3.5
- MDL50 (BGM cells): 21.7 ± 1.24 µM

SMILES: CCOC(=O)C1=C(CCl)NC(=O)NC1c1ccc(Cl)cc1 (centres unmarked) [1d]
- IC50 [1, 3]: 1.96 ± 0.21 µM
- SI (selectivity index) [1]: 1.3
- MDL50 (BGM cells): 2.5 ± 0.93 µM
- hemolysis at 30 min, 1000 µM (Hemolysis assay): 3.6%

SMILES: CCOC(=O)C1=C(CCl)NC(=O)NC1c1ccccc1OC (centres unmarked) [1e]
- SI (selectivity index) [1]: 1.95
- MDL50 (BGM cells): 23.8 ± 0.6 µM

SMILES: CCOC(=O)C1=C(CCl)NC(=O)NC1c1ccc(Br)cc1 (centres unmarked) [1f]
- IC50 [1, 3]: 1.76 ± 0.27 µM
- SI (selectivity index) [1]: 12.5
- MDL50 (BGM cells): 22 µM and 22 ± 0.56 µM
- Reduction (%) of parasitaemia, Day eight [2]: 60.9%
- Reduction (%) of parasitaemia, Day five [2]: 9.1%
- hemolysis at 30 min, 1000 µM (Hemolysis assay): 0.95%

SMILES: CCOC(=O)C1=C(CCl)NC(=O)NC1c1cc(OC)c(OC)c(OC)c1 (centres unmarked) [1g]
- IC50 [1, 3]: 24.1 ± 1.2 µM
- SI (selectivity index) [1]: 0.9
- MDL50 (BGM cells): 21.7 ± 1.15 µM

SMILES: CCOC(=O)C1=C(CCl)NC(=O)NC1c1ccccc1Cl (centres unmarked) [1h]
- IC50 [1, 3]: 3.12 ± 0.06 µM
- SI (selectivity index) [1]: 24.6
- MDL50 (BGM cells): 77 µM and 77 ± 0.87 µM
- Reduction (%) of parasitaemia, Day eight [2]: 55.2%
- Reduction (%) of parasitaemia, Day five [2]: 0%

SMILES: CCOC(=O)C1=C(CCl)NC(=O)NC1c1ccc(OC)cc1OC (centres unmarked) [1i]
- IC50 [1, 3]: 2.98 ± 0.18 µM
- SI (selectivity index) [1]: 3.3
- MDL50 (BGM cells): 9.7 ± 0.46 µM

SMILES: CCOC(=O)C1=C(CCl)NC(=O)NC1c1ccc([N+](=O)[O-])cc1 (centres unmarked) [1j]
- IC50 [1, 3]: 6 ± 0.8 µM
- SI (selectivity index) [1]: 4.4
- MDL50 (BGM cells): 26.2 ± 1.1 µM

SMILES: CCOC(=O)C1=C(CCl)NC(=O)NC1c1ccc(OC)c(OC)c1 (centres unmarked) [1k]
- IC50 [1, 3]: 3 ± 0.25 µM
- SI (selectivity index) [1]: 8.2
- MDL50 (BGM cells): 24.5 ± 0.09 µM

SMILES: CCOC(=O)C1=C(CCl)NC(=O)NC1c1ccc(O)c(OC)c1 (centres unmarked) [1l]
- IC50 [1, 3]: 3 µM

SMILES: O=C1NC2=C(C(=O)N(CCc3ccccc3)C2)C(c2ccccc2)N1 (centres unmarked) [2a]
- IC50 [1, 3]: > 50 µM
- MDL50 (BGM cells): > 100 µM

SMILES: COc1ccc(C2NC(=O)NC3=C2C(=O)N(CCc2ccccc2)C3)cc1 (centres unmarked) [2b]
- IC50 [1, 3]: 26.4 ± 0.26 µM
- SI (selectivity index) [1]: 0.93
- MDL50 (BGM cells): 24.6 ± 1.23 µM
- hemolysis at 30 min, 1000 µM (Hemolysis assay): 21.7%

SMILES: O=C1NC2=C(C(=O)N(CCc3ccccc3)C2)C(c2cccc(Br)c2)N1 (centres unmarked) [2c]
- IC50 [1, 3]: > 50 µM
- MDL50 (BGM cells): 6.9 ± 0.97 µM
- hemolysis at 30 min, 1000 µM (Hemolysis assay): 12.3%

SMILES: COc1ccccc1C1NC(=O)NC2=C1C(=O)N(CCc1ccccc1)C2 (centres unmarked) [2e]
- IC50 [1, 3]: 22 ± 0.08 µM
- SI (selectivity index) [1]: 2.5
- MDL50 (BGM cells): 56 ± 1.83 µM

SMILES: O=C1NC2=C(C(=O)N(CCc3ccccc3)C2)C(c2ccc(Br)cc2)N1 (centres unmarked) [2f]
- IC50 [1, 3]: > 50 µM
- MDL50 (BGM cells): 18.6 ± 1.21 µM
- hemolysis at 30 min, 1000 µM (Hemolysis assay): 22.6%

SMILES: COc1cc(C2NC(=O)NC3=C2C(=O)N(CCc2ccccc2)C3)cc(OC)c1OC (centres unmarked) [2g]
- IC50 [1, 3]: > 50 µM
- SI (selectivity index) [1]: < 0.1
- MDL50 (BGM cells): 6.2 ± 0.73 µM

SMILES: O=C1NC2=C(C(=O)N(CCc3ccccc3)C2)C(c2ccccc2Cl)N1 (centres unmarked) [2h]
- IC50 [1, 3]: > 50 µM
- MDL50 (BGM cells): > 100 µM

SMILES: O=C1NC2=C(C(=O)N(CCc3ccccc3)C2)C(c2ccc([N+](=O)[O-])cc2)N1 (centres unmarked) [2j]
- IC50 [1, 3]: 25.6 ± 0.09 µM
- SI (selectivity index) [1]: 0.4
- MDL50 (BGM cells): 8.9 ± 0.9 µM

SMILES: O=C1NC2=C(C(=O)N(Cc3ccccc3)C2)C(c2ccccc2)N1 (centres unmarked) [3a]
- IC50 [1, 3]: > 50 µM
- MDL50 (BGM cells): > 100 µM

SMILES: COc1ccc(C2NC(=O)NC3=C2C(=O)N(Cc2ccccc2)C3)cc1 (centres unmarked) [3b]
- IC50 [1, 3]: > 50 µM
- MDL50 (BGM cells): > 100 µM

SMILES: O=C1NC2=C(C(=O)N(Cc3ccccc3)C2)C(c2ccc(Cl)cc2)N1 (centres unmarked) [3d]
- IC50 [1, 3]: 45 ± 0.79 µM
- SI (selectivity index) [1]: 1.9
- MDL50 (BGM cells): 86 ± 1.27 µM

SMILES: COc1ccccc1C1NC(=O)NC2=C1C(=O)N(Cc1ccccc1)C2 (centres unmarked) [3e]
- IC50 [1, 3]: > 50 µM
- MDL50 (BGM cells): > 100 µM

SMILES: O=C1NC2=C(C(=O)N(Cc3ccccc3)C2)C(c2ccc(Br)cc2)N1 (centres unmarked) [3f]
- IC50 [1, 3]: 26 ± 1.15 µM
- SI (selectivity index) [1]: > 3.8
- MDL50 (BGM cells): > 100 µM

SMILES: COc1cc(C2NC(=O)NC3=C2C(=O)N(Cc2ccccc2)C3)cc(OC)c1OC (centres unmarked) [3g]
- IC50 [1, 3]: > 50 µM
- MDL50 (BGM cells): > 100 µM

SMILES: O=C1NC2=C(C(=O)N(Cc3ccccc3)C2)C(c2ccccc2Cl)N1 (centres unmarked) [3h]
- IC50 [1, 3]: 26.7 ± 0.56 µM
- SI (selectivity index) [1]: > 3.8
- MDL50 (BGM cells): > 100 µM

SMILES: COc1ccc(C2NC(=O)NC3=C2C(=O)N(Cc2ccccc2)C3)c(OC)c1 (centres unmarked) [3i]
- IC50 [1, 3]: > 50 µM
- MDL50 (BGM cells): > 100 µM

SMILES: O=C1NC2=C(C(=O)N(Cc3ccccc3)C2)C(c2ccc([N+](=O)[O-])cc2)N1 (centres unmarked) [3j]
- IC50 [1, 3]: > 50 µM
- MDL50 (BGM cells): > 100 µM

SMILES: COc1ccc(C2NC(=O)NC3=C2C(=O)N(Cc2ccccc2)C3)cc1OC (centres unmarked) [3k]
- IC50 [1, 3]: > 50 µM
- MDL50 (BGM cells): > 100 µM

SMILES: CCN(CC)CCCC(C)Nc1ccnc2cc(Cl)ccc12 (centres unmarked) [Chloroquine, reference compound]
- IC50 [1]: 0.55 ± 0.09 µM
- Reduction (%) of parasitaemia, Day eight [2]: 100%
- Reduction (%) of parasitaemia, Day five [2]: 97.2%
